Experimental data reported in US5279956A, “Activated protein C polypeptides and anti-peptide antibodies, diagnostic methods and systems for inhibiting activated protein C” (The Scripps Research Institute, priority 1991, dated 1994).
No end group written: not given here.

Target: T1, APC (Homo sapiens, UniProt P04070)
T1 construct: begins at amino acid residue position 158 and ends at 419; The light chain is 155 amino acid residues in length; tissue Factor IX concentrate from Immuno AG, Vienna; thrombin from Enzyme Research Laboratories
Test: APC-catalyzed inactivation of Factor Va, read out by Factor Va-prothrombinase assay
Assay type: biochemical
Protocol: FIG. 5 illustrates the APC-catalyzed inactivation of Factor Va in the presence of peptide-(390-404) and phospholipids. The assay was carried out in TBS-BSA and 2.5 mM CaCl2 at pH 7.4 as described in Example 5a5) using 0.25 nM APC, 10.0 nM Va, 50 μM phospholipid vesicles and 0 to 50 μM peptide-(390-404), that had been preincubated for 20 minutes at 22° C. with Factor Va. Factor Va inactivation by APC was indirectly determined using the cofactor activity of Factor Va in a prothrombinase assay as described in Example 5a5). Residual APC activity in the presence of the peptide was calculated from a standard curve.
The assay consisted of two parts wherein the APC catalyzed inactivation of Factor Va in the absence or presence of peptides was tested in the first part followed by the indirect determination of remaining Factor Va activity in a prothrombinase assay in the second part.
The APC catalyzed inactivation of Factor Va assays were performed in 96-well flat bottom ELISA plates (Stockwell Scientific, Walnut, Calif.). The reactions were performed either in the presence or absence of phospholipid vesicles to determine if peptide-(390-404) inhibited APC anticoagulant activity by inhibiting the binding of APC or its substrate to phospholipids or if it was independent of phospholipid surfaces. […]

T1 sequence (P04070 212-461): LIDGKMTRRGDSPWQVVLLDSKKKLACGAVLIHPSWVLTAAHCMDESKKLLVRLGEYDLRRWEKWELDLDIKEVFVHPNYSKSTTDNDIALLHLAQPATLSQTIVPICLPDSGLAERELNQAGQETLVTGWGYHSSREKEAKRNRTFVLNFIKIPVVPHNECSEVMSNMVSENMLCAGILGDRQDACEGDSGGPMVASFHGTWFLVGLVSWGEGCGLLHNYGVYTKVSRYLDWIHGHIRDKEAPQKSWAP
T1 sequence (P04070 43-197): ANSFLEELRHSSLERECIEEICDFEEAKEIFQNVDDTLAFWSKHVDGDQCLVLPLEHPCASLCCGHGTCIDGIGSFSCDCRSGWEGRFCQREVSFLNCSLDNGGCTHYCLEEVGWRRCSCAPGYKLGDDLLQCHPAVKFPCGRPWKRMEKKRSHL

YGVYTKVSRYLDWIH-NH2 [peptide-(390-404), YGVYTKVSRYLDWIH]
IC50 (50 μM phospholipid vesicles, 0.25 nM APC, 10.0 nM Va, read-out: half-maximal inhibition of APC-catalyzed inactivation of Factor Va): 4 µM
inhibition of APC activity (absence of phospholipids, 5 nM APC, 40 nM Va, 50 μM peptide): 94%
